Columns and labels:
[1] = refractive index (Na D-line) (dimensionless); settings: 293.15 K; 101.33 kPa; Liquid; Standard Abbe refractometry
[2] = Liquid; for mass density: 101 kPa, Vibrating tube method; for vapor or sublimation pressure: Ebulliometric method (Recirculating still)
[3] = xn = mol fraction of the nth substance listed; settings: 101 kPa, Liquid, Vibrating tube method

CC(C)CO [2-methyl-1-propanol]
Settings	refractive index
[1]	1.3962

[2]
Settings	mass density [kg/m3]	vapor or sublimation pressure [kPa]
333.15 K	769.49	12.3
343.15 K	760.79	21
353.15 K	751.86	32.7

CC(C)CO [2-methyl-1-propanol] + CC(C)O
mass density [kg/m3], [3]
Settings	333.15 K	343.15 K	353.15 K
x2 = 0	769.49	760.79	751.86
x2 = 0.042	768.8	760.07	751.1
x2 = 0.1428	767.1	758.28	749.19
x2 = 0.1913	766.26	757.39	748.25
x2 = 0.2906	764.49	755.53	746.26
x2 = 0.3911	762.62	753.57	744.18
x2 = 0.4444	761.6	752.49	743.03
x2 = 0.4993	760.52	751.36	741.83
x2 = 0.5485	759.52	750.32	740.72
x2 = 0.594	758.58	749.33	739.66
x2 = 0.6911	756.5	747.14	737.33
x2 = 0.7445	755.31	745.88	735.99
x2 = 0.8481	752.91	743.36	733.3
x2 = 0.8925	751.85	742.24	732.1
x2 = 0.9491	750.48	740.78	730.53

CC(C)O [propan-2-ol]
Settings	refractive index
[1]	1.3774

[2]
Settings	mass density [kg/m3]	vapor or sublimation pressure [kPa]
333.15 K	749.23	38.5
343.15 K	739.46	61.1
353.15 K	729.1	92.3

CC(C)O [propan-2-ol] + CC(C)CO
[3], x1 = 1
Settings	mass density [kg/m3]
333.15 K	749.23
343.15 K	739.46
353.15 K	729.1

— the NIST ThermoML archive (doi:10.1021/acs.jced.8b00103)
